As a reminder, the AC50 is the concentration giving half of the maximal activity seen. For orientation: IC50 means the concentration at which inhibition is half-maximal. By EC50 is commonly meant the concentration that produces a half-maximal response. For orientation: IC90 means the concentration needed for an effect of 90%.

The record followed here is ChEMBL document CHEMBL1201862, “PubChem BioAssay data set” (2004).

Assay [1] can be described thus: blockers of HIV-1 envelope-mediated cell-cell fusion – cherry-pick, dose response (AID 652057). In kind it is functional, cell-based.
Assay [2] can be described thus: viability loss in CEM21 cells – cell-based, CellTiter-Glo luminescence, cherry-picked, cytotoxicity control for viral fusion inhibitor project, dose response (AID 652042).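 Note: potency for signal decrease meaning cytotoxicity.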 In kind it is functional.
Assay [3] in a line: off-target signal loss in HeLa-CEM21 co-culture – HeLa F-luc CTL cells, cherry-picked, counter-screen for HIV-1 Env fusion inhibitor project, dose response (AID 652040).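 Note: potency for signal decrease marking cytotoxic or nonspecific inhibition.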 Format: functional, cell-based. A general note: Counterscreens check selectivity or assay interference.
A short description of assay [4]: potency of ADAM10 substrate cleavage blockers – biochemical, QFRET, dose response (AID 743254).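 Note: ADAM10 enzyme with the DM2 quenched FRET peptide as substrate; EDANS fluorescence gain as the protease cuts the substrate; inhibitor potency against ADAM10 proteolytic activity.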
In assay [5] the target is Disintegrin and metalloproteinase domain-containing protein 17 (Homo sapiens, UniProt P78536). Description: inhibition of ADAM17 substrate cleavage – biochemical, quenched FRET substrate, counter-screen for ADAM10 exosite inhibitor project, dose response (AID 743253).
Assay [6] is described as follows: viability loss in HepG2 hepatoma cells – cell-based, ATP luminescence, cherry-pick, activator set 2, cytotoxicity control, dose response (AID 1053143). In kind it is functional.
Assay [7] concerns the target Lysosomal acid glucosylceramidase (Homo sapiens, UniProt P04062). In words: Dose response cell-based high throughput screening assay to identify enhancers of beta-glucosidase activity. [Related pubchem assays: 784 ]. In kind it is functional.
Assay [8] is described as follows: cells. The note with it: A549.
Assay [9] can be described thus: cells. The note with it: HEK293.
Assay [10] addresses 1-phosphatidylinositol 4,5-bisphosphate phosphodiesterase gamma-1 (Homo sapiens, UniProt P19174). In words: Counterscreen for inhibitors of phospholipase C isozymes (PLC-B3): Fluorescence-based biochemical high throughput dose response assay to identify inhibitors of phospholipase C isozymes (PLC-gamma1).
Assay [11] deals with 1-phosphatidylinositol 4,5-bisphosphate phosphodiesterase beta-3 (Homo sapiens, UniProt Q01970). Description: Fluorescence-based biochemical high throughput dose response assay to identify inhibitors of phospholipase C isozymes (PLC-B3).
Assay [12] deals with T1, Methionyl-tRNA synthetase, putative (Trypanosoma brucei brucei, UniProt Q38C91). Format: functional, Trypanosoma brucei brucei strain 927/4 GUTat10.1.
Assay [13] can be described thus: Counterscreen for inhibitors of Trypanosoma brucei methionyl tRNA synthetase (MetRS): Luminescence-based cell-based high throughput dose response assay to identify compounds that are cytotoxic to Jurkat human T lymphocyte cells. Format: functional.
Assay [14] concerns the target T1, Methionyl-tRNA synthetase, putative. In kind it is functional, Trypanosoma brucei brucei strain 927/4 GUTat10.1. This is another data set of the same source.
Assay [15] in a line: Late stage counterscreen for inhibitors of Trypanosoma brucei methionyl tRNA synthetase (MetRS): Luminescence-based cell-based high throughput dose response assay to identify compounds that are cytotoxic to Jurkat human T lymphocyte cells. Format: functional.
The target in assay [16] is Luciferin 4-monooxygenase (Photinus pyralis, UniProt P08659). Description: Counter Screen for Luciferase-based Assay Positives. [Related pubchem assays: 620, 618, 411 ].
Assay [17] in a line: viability of PTEN-deleted HCT116 cells – cell-based, HCT116 PTEN knockout, dose response (AID 1047).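 Note: HCT116 colon tumor cells with PTEN knocked out; cells exposed to compound for 60 hours before readout; potency for loss of cell viability measured by luminescence.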 Format: functional.
Assay [18] relates to HT-1080. Description: HT1080 cell viability loss – fluorescence readout (AID 620). To be noted: Homo sapiens. Format: functional, cell-based.
The nature of assay [19]: viability of HCT116 lacking mutant beta-catenin – cell-based, human colon tumor, dose response (AID 1045).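 Note: HCT116 colon tumor cells with beta catenin knocked out; cells exposed to compound for 60 hours.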 Format: functional.
For assay [20], the target named is Oxysterols receptor LXR-beta (Homo sapiens, UniProt P55055). Format: functional, cell-based.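 Note: agonist activity at LXR measured by a cell-based luminescence readout across a dose range, run as a counterscreen for daf-12 agonists; HEK293 cells with Gal4-LXR fusion and GAL4-driven luciferase reporter; potency for activation of Gal4-LXR reporter so compounds are agonists.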
The nature of assay [21]: intracellular Trypanosoma cruzi inhibitors in host cells – cell-based, plate reader, cherry-pick samples, set 3, dose response (AID 651818).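 Note: compounds incubated with infected cells for about four days.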 Format: functional.
The nature of assay [22]: T. cruzi growth inhibition in host cells, dose response, cell-based, plate reader, dry powder, set 2 (AID 652275). In kind it is functional.
Assay [23] is described as follows: anti-trypanosomal activity in BESM host cells – imaging, CA-I/72 strain, bovine embryo skeletal muscle, dry powder, dose response (AID 651885). In kind it is functional, cell-based.
Assay [24] can be described thus: Counterscreen for […] of the human trace amine associated receptor 1 (TAAR1): Fluorescence-based cell-based high throughput dose response assay to identify nonselective Ga16 agonists. In kind it is functional.
Assay [25] has as its target T2, Trace amine-associated receptor 1 (Homo sapiens, UniProt Q96RJ0).
T2 sequence (Q96RJ0 whole entry): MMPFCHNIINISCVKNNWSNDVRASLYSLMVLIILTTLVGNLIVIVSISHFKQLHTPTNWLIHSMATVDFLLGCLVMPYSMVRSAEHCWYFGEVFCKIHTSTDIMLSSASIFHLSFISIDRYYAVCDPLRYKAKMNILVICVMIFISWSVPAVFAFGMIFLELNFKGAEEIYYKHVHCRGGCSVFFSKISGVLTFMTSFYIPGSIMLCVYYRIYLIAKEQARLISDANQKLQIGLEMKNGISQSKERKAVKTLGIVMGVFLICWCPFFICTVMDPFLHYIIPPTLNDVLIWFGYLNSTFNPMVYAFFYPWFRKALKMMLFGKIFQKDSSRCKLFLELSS
Description: Fluorescence-based cell-based high throughput dose response assay to identify antagonists of the human trace amine associated receptor 1 (TAAR1). In kind it is functional.

Assay [26] in a line: Counterscreen for antagonists of the human trace amine associated receptor 1 (hTAAR1): Fluorescence-based cell-based high throughput dose response assay to identify nonselective Ga16 antagonists. Format: functional.
Assay [27] has as its target T2, Trace amine-associated receptor 1. Description: Counterscreen for antagonists of the human trace amine associated receptor 1 (hTAAR1): Fluorescence-based cell-based high throughput dose response assay to identify TAAR1 Agonists. Format: functional.
Assay [28] concerns HEK293. Description: viability loss in HEK293T cells – cell-based, ATP luminescence, cherry-pick samples, cytotoxicity control, dose response (AID 687005).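 Note: cells exposed to compound for 48 hours.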 To be noted: Homo sapiens. In kind it is functional.
Assay [29] can be described thus: HEK293 Cytotoxicity Assay Measured in Cell-Based System Using Plate Reader - 7071-01_Inhibitor_Dose_CherryPick_Activity_Set2. Format: functional.
Assay [30] concerns the target Endoplasmic reticulum aminopeptidase 1 (Homo sapiens, UniProt Q9NZ08). Description: inhibition of human ERAP1 enzyme activity – biochemical, cherry-pick, set 2, plate reader, dose response (AID 743314).
For assay [31], the target named is NS3 (Hepatitis C virus, UniProt A3EZJ3). In words: NS3h DNA-binding inhibition IC50 – biochemical, fluorescence polarization, ChemBridge library, dose response (AID 743264). (In general: In fluorescence polarisation assays a small probe gives low polarisation when free and higher when bound to something large.)
Assay [32] in a line: HepG2 cell viability loss – cherry-picked samples, cytotoxicity control, dose response (AID 1053183). In kind it is functional, cell-based.
Assay [33] is described as follows: HEK293 cell viability loss – cherry-picked samples, cytotoxicity control, dose response (AID 1053185). In kind it is functional, cell-based.
The target of assay [34] is Metabotropic glutamate receptor 5 (Rattus norvegicus, UniProt P31424). Description: Identification of a glycine sulfonamide based non-MPEP site positive allosteric potentiator (PAM) of mGlu5 (calcium_assay). In kind it is functional.
Assay [35] can be described thus: A Cell-Based Confirmatory Screen for Compounds that Inhibit VEEV, TC-83 (5). In kind it is functional.
The nature of assay [36]: A Cell-Based Confirmatory Screen for Compounds that Inhibit VEEV TC-83 (4). In kind it is functional.
Assay [37] in a line: inhibitors of non-replicating M. tuberculosis, dose response, luciferase, dry powder (AID 651619). Format: functional. To be noted: Mycobacterium tuberculosis.
A short description of assay [38]: inhibitors of non-replicating M. tuberculosis, dose response, luciferase, dry powder (AID 651620). Format: functional. The note with it: Mycobacterium tuberculosis.
Assay [39] in a line: growth inhibition of replicating M. tuberculosis, dose response, counter-screen, dry powder, IC90 (AID 651617). Format: functional. The note with it: Mycobacterium tuberculosis.
A short description of assay [40]: CTGF mRNA reduction in DLD1 cells – cell-based, DLD1 colon cancer, RT-qPCR, cherry-pick, dose response (AID 1053122). Format: functional. To be noted: Cancer cell lines. For orientation: In qPCR the cycle at which signal appears reflects the starting amount.
The target of assay [41] is Potassium channel subfamily K member 3 (Homo sapiens, UniProt O14649). Description: inhibition of human KCNK3 channel flux – CHO cells, FluxOR thallium flux, SAR follow-up (AID 652212). In kind it is functional.
In assay [42] the target is Protein Wnt-3a (Mus musculus, UniProt P27467). Description: SAR analysis of small molecule antagonists of Gli-SUFU in a Wnt3a luminescent reporter assay. In kind it is functional.
The target in assay [43] is COUP transcription factor 2 (Homo sapiens, UniProt P24468). In words: Luminescence-based cell-based high throughput dose response assay to identify inhibitors of COUP-TFII (NR2F2). Format: functional.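 Note: HEK293 cells transiently cotransfected with COUP-TFII expression vector and reporter; luciferase reporter luminescence driven by COUP-TFII from the pX2-168 reporter plasmid.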
The nature of assay [44]: cervical cancer cell viability loss – HeLa, 24 h, plate reader, powder samples, set 3, cytotoxicity control, dose response (AID 651864). In kind it is functional, cell-based.
The nature of assay [45]: HeLa cell viability loss – 24 h, dry powder, set 2, cytotoxicity control, dose response (AID 651774). In kind it is functional, cell-based.

Activity calls are given as the source filed them. Bounds are passed on as bounds.

T1 sequence (Q38C91 whole entry): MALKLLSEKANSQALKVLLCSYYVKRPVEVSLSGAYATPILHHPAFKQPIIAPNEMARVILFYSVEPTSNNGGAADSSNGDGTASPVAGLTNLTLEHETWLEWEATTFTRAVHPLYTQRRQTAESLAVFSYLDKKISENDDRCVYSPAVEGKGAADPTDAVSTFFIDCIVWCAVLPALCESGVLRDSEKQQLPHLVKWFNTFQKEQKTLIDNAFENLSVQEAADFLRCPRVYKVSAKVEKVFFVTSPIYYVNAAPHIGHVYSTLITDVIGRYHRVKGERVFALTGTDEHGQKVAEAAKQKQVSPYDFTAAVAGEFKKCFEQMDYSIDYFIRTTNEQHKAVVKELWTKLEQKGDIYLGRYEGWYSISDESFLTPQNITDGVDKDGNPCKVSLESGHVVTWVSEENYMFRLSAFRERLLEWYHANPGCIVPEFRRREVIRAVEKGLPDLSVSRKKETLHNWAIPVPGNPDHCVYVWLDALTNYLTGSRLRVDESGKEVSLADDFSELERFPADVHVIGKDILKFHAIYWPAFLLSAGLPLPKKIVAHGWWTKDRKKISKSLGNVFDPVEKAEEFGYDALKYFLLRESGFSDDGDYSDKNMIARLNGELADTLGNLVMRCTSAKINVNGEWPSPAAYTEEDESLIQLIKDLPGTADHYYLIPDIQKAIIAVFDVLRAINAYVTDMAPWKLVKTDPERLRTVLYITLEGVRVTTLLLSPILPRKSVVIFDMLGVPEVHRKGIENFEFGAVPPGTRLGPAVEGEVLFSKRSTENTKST
Chain of 1-phosphatidylinositol 4,5-bisphosphate phosphodiesterase gamma-1 (P19174 whole entry): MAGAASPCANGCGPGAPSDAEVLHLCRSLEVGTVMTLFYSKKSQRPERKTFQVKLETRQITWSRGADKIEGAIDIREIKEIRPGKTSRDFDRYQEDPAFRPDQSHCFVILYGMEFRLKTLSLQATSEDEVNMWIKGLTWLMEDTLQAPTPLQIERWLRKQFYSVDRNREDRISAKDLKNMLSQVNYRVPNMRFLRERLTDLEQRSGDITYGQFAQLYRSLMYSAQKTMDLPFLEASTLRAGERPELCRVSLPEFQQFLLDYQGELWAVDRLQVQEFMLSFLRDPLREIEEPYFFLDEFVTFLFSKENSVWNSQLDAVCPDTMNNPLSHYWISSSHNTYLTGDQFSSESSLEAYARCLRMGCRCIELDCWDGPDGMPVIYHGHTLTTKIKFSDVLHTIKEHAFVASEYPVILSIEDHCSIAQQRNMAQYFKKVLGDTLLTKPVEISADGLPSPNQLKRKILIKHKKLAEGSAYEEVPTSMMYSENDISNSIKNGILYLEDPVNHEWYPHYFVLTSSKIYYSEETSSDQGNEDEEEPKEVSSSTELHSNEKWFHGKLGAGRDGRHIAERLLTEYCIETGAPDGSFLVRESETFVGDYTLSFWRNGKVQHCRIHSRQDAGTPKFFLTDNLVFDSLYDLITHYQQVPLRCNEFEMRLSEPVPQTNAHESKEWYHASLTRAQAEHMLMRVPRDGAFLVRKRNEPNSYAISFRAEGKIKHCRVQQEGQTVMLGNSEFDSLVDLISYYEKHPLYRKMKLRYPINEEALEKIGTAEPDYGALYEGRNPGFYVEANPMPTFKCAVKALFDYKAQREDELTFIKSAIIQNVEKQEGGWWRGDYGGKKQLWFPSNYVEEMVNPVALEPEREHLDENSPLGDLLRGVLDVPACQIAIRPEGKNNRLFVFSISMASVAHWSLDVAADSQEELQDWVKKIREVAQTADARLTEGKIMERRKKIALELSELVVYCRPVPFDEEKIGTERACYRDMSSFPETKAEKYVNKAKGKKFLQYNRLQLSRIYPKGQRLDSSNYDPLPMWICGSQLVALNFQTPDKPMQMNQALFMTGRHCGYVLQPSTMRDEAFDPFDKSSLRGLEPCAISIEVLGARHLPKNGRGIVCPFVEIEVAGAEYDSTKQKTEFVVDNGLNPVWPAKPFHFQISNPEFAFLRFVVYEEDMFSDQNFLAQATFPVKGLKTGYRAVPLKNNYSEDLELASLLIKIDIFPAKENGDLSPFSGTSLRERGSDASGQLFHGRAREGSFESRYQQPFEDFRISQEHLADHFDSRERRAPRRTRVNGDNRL
Chain of 1-phosphatidylinositol 4,5-bisphosphate phosphodiesterase beta-3 (Q01970 whole entry): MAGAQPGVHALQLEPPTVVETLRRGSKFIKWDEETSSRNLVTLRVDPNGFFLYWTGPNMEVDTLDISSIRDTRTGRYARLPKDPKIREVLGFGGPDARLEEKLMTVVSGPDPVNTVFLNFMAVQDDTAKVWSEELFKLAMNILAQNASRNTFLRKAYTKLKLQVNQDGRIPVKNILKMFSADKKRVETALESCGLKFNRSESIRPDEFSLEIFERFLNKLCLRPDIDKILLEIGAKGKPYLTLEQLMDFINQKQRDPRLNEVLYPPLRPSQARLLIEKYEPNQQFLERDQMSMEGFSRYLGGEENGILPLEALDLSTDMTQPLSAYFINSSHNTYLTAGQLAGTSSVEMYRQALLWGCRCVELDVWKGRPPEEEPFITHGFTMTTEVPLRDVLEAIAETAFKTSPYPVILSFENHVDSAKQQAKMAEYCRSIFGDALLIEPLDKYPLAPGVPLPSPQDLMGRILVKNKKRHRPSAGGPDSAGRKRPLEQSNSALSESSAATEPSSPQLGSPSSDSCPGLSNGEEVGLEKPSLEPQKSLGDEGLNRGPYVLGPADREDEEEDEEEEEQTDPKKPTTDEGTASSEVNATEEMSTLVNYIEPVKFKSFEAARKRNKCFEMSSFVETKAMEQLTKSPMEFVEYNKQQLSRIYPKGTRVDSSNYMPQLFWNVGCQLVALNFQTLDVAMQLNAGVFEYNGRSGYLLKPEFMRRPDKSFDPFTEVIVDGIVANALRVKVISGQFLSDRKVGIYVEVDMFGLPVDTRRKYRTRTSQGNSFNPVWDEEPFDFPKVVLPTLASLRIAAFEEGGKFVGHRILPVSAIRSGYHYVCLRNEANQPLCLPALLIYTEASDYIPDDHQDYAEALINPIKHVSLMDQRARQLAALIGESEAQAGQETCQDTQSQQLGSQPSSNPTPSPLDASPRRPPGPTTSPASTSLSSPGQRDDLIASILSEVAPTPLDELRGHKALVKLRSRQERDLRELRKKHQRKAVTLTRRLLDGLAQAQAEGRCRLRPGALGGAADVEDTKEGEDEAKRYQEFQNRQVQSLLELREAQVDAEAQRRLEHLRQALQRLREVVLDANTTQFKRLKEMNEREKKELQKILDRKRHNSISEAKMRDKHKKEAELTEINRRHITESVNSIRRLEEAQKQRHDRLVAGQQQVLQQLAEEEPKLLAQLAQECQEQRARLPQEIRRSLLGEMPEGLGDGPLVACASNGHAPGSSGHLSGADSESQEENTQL
Chain of Luciferin 4-monooxygenase (P08659 whole entry): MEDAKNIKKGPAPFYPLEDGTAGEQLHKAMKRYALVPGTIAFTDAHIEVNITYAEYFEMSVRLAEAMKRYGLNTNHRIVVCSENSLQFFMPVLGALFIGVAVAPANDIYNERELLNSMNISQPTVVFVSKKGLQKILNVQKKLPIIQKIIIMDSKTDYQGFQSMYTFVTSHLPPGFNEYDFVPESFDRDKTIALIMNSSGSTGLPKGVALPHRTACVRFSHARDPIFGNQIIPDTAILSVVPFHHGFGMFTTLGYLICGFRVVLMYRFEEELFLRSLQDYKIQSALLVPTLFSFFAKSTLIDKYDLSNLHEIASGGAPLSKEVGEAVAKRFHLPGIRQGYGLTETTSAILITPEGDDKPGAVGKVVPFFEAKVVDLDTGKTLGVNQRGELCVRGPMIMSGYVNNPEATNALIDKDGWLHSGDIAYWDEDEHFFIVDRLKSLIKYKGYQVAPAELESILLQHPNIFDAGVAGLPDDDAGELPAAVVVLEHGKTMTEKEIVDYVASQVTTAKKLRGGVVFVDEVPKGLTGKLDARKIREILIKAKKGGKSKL
Chain of Metabotropic glutamate receptor 5 (P31424 whole entry): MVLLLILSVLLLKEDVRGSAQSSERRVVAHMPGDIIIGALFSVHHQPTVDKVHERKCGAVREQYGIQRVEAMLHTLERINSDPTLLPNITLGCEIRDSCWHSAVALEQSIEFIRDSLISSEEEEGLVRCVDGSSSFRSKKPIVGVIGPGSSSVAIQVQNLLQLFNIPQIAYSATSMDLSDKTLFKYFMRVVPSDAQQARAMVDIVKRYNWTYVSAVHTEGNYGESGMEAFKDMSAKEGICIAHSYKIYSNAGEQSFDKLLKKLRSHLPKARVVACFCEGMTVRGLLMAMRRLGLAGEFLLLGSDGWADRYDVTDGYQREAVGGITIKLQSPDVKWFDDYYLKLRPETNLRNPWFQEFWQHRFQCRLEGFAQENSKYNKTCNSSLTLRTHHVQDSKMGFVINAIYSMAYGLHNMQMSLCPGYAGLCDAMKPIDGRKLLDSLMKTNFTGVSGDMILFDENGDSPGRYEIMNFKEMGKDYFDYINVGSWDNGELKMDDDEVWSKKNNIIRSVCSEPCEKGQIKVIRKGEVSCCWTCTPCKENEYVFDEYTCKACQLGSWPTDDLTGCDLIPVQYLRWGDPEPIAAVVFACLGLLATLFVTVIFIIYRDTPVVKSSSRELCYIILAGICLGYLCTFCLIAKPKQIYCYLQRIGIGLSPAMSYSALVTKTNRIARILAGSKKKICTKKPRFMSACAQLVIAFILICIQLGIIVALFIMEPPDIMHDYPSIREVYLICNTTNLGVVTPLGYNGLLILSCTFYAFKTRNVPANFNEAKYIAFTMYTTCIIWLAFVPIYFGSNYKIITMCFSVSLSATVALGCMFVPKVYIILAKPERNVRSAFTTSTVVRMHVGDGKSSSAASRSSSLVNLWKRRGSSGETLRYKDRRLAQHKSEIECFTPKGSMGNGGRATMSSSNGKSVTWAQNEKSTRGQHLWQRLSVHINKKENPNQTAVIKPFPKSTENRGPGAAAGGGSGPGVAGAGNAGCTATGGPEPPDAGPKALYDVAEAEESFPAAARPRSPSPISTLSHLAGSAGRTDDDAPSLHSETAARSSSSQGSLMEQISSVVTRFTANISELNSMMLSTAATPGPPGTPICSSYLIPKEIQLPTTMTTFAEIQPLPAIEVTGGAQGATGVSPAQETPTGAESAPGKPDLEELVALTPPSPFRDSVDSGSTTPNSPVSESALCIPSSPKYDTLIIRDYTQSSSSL

`COc1cc2c(cc1OC)C(=O)N1[C@H]3c4cc(Cl)ccc4OC[C@@H]3[C@H](c3ccccc3)[C@]1(C)C(=O)N2`: the AC50 in [1] is 8.86 µM (active); in assay [2], 53.4 µM (active); in assay [3], 21 µM (active). For the same molecule, the IC50 in [4] and in assay [5] was > 69.5 µM (inactive) in each case.

In the case of `c1csc(-c2ccc(N3CCOCC3)nn2)c1`, in assay [6], the AC50 is 26 µM (active).

Regarding `Cc1cc2c(C)cc(=O)oc2c2c1NCCC2`, the EC50 in [7] was > 50 µM (not active). Moreover, the AC50 in assay [8] and in assay [9] was > 52 µM (inactive) in each case.

As to `CCOC(=O)/C(C#N)=C1/C=CN(C)C=N1`, the IC50 in assay [10] and in assay [11] was > 123 µM (inactive) in each case.

Regarding `CC(=O)c1c[nH]c(C(=O)NCc2cccc(C(F)(F)F)c2)c1`, the IC50 was 2.07 µM (active) in assay [12], 83.3 µM (inactive) in assay [13], 1.16 µM (active) in assay [14] and > 83.3 µM (inactive) in [15].

In the case of `Clc1cccc(-c2nnc(-c3ccccc3)o2)c1`, the EC50 in assay [16] is 50.7 µM (active); in assay [17], 49 µM (active); in assay [18], > 50 µM (not active); in assay [19] it was 26.3 µM (active); in assay [20], > 67.5 µM (inactive).

For `COc1ccc(CN(C)C[C@@H]2Oc3c(NC(=O)c4ccncc4)cccc3C(=O)N([C@@H](C)CO)C[C@H]2C)cc1`, the AC50 in assay [21] is 0.388 µM (active); in assay [22], 0.0382 µM (active). In assay [23], the IC50 was 0.18 µM (active).

Take `COC(=O)Cc1nnn2c1[C@H](C)[C@H](c1ccccc1Br)OCC2`: the EC50 in [24] and in assay [27] was > 29.9 µM (inactive) each time. Further, the IC50 in [25] was 1.28 µM (active); in [26], > 29.9 µM (inactive).

`COc1ccccc1C#Cc1ccc2c(c1)O[C@@H](CN(C)C(C)=O)[C@@H](C)CN([C@H](C)CO)S2(=O)=O`: the AC50 in assay [28] and in [29] was 9.59 µM (active) in each case.

For `Cc1cc(=O)oc2c(CN3CCCCC3)c(O)ccc12`, in [30], the AC50 was 5.18 µM (active).

Take `Cc1ccc(C)n1-c1cc(C(=O)O)ccc1O`: in [31], the IC50 was 50.4 µM (active).

Consider `N#Cc1cccc(-c2ccc([C@H]3[C@@H]4CN(C(=O)Nc5ccc(C(F)(F)F)cc5)C[C@H]3N4)cc2)c1`, for which the AC50 was 36.1 µM (active) in [32] and > 52 µM (inactive) in [33].

For the molecule `CC(C(=O)Nc1cc(Cl)ccn1)N(c1ccccc1Cl)S(C)(=O)=O` (stereo not given), the EC50 in assay [34] is 10 µM (inconclusive).

Consider `CCN1CCN(Cc2nc3ccc([N+](=O)[O-])cc3c(=O)n2-c2ccc(F)cc2)CC1`, for which the IC50 in assay [35] was 0.99 µM (active); in assay [36], 0.6 µM (active).

For `COc1ccc(-c2nnc(SCc3ccccn3)o2)cc1`, the IC90 is 4 µM (active) in assay [37], 4 µM (active) in [38] and 62 µM (active) in [39].

Consider `O=C(Cc1ccncc1)N1CCCCN2[C@@H](CO)[C@H](c3ccc(C#Cc4ccccc4F)cc3)[C@@H]2C1`, for which, in assay [40], the AC50 is 13.1 µM (active).

For the molecule `Cc1cccc(C(=O)Nc2ccccc2C(=O)Nc2ccccc2)c1`, the IC50 in [41] is 5.59 µM (active).

With `O=C(Nc1cc(N2CCCCC2)ncn1)c1ccc(Br)o1`, in [42], the IC50 is > 21.8 µM (inactive).

For the molecule `c1ccc2cc3[nH]c(CNc4nc(N5CCOCC5)nc5c4ncn5-c4ccsc4)nc3cc2c1`, in [43], the IC50 is 6.35 µM (active).

As for `CCn1nccc1/N=C/c1ccc(N2CCCC2)cc1`, the AC50 in assay [44] was > 160 µM (inactive).

Take `O=C(Nc1ccc(-c2ccccc2)cc1)NC1CCCC1`: the concentration at half-maximal activity (AC50) in assay [45] was 68 µM (active).
